In publication PMC6348443 (Journal of Medicinal Chemistry, 2018):
Structures can show the parent of a compound that is named as a salt. Where two headings read alike, the source gives them in different places.

Legend:
DOR [1] = molecular target: T1, DOR (Homo sapiens, UniProt P41143); assay: [35S]GTPγS binding assay, CHO-hDOR membranes; format: biochemical; conditions: for EC50: [35S]GTPγS, CHO human DOR membranes; for Emax: relative to reference full agonist DPDPE, read-out: DOR % stim.
T1 construct: host or cells: CHO (CHO-hDOR)
Procedure: (§1) Efficacies are presented as percentage stimulation relative to the standard full agonists, [D-Ala^2,N-Me-Phe4,Gly-ol^5]enkephalin (DAMGO for MOR),[53] [D-Pen^2,D-Pen^5]enkephalin (DPDPE for DOR)[54] and N-methyl-2-phenyl-N-[(5R,7S,8S)-7-(pyrrolidin-1-yl)-1-oxaspiro[4.5]dec-8-yl]acetamide (U69,593 for KOR).[55]
(§2) Membranes from CHO cells expressing human opioid receptors were prepared in 50 mM Tris-HCl buffer (pH 7.7) according to a previously described procedure.[64] Cells expressing human opioid receptors grown at confluence were removed from the culture plates by scraping, homogenized in 50 mM Tris buffer (pH 7.7), using a Polytron homogenizer, then centrifuged once and washed by an additional centrifugation at 27 000g for 15 min, at 4 °C. The final pellet was resuspended in Tris buffer and stored at −80 °C until use. Protein content of brain and cell membrane preparation homogenates was determined by the method of Bradford using bovine serum albumin as the standard.[65]
(§3) Binding of [^35S]GTPγS to membranes from CHO cells stably expressing the human opioid receptors was conducted according to the published procedures.[49],[64] Cell membranes (5–10 μg) in 20 mM HEPES, 10 mM MgCl2, and 100 mM NaCl (pH 7.4) were incubated with 0.05 nM [^35S]GTPγS, 10 μM GDP, and various concentrations of test compound in a final volume of 1 mL, for 60 min at 25 °C. Nonspecific binding was determined using 10 μM GTPγS, and the basal binding was determined in the absence of test ligand. Samples are filtered over glass Whatman glass GF/B fiber filters and counted as described for binding assays. All experiments were performed in duplicate and repeated at least three times.
(§4) Data were analyzed and graphically processed using the GraphPad Prism 5.0 Software (GraphPad Prism Software Inc., San Diego, CA). For in vitro assays, inhibition constant (Ki in nM), potency (EC50 in nM), and efficacy (% stimulation) values were determined from concentration–response curves by nonlinear regression analysis. The Ki values were determined by the method of Cheng and Prusoff.[66] In the [^35S]GTPγS binding assays, efficacy was determined relative to the reference full opioid agonists, DAMGO (MOR), DPDPE (DOR), and U69,593 (KOR). In vitro data are presented as mean ± SEM of three to four independent experiments each performed in duplicate. […] Each experimental group included six to seven mice. Data were statistically evaluated using one-way ANOVA with Tukey’s post hoc test for multiple comparisons with significance set at P < 0.05.

KOR [2] = molecular target: T2, KOR (Homo sapiens, UniProt P41145); assay: [35S]GTPγS binding assay, CHO-hKOR membranes; format: biochemical; conditions: for EC50: [35S]GTPγS, CHO human KOR membranes, read-out: KOR EC50; for Emax: relative to reference full agonist U69,593, read-out: KOR % stim.; for functional profile at KOR (full/partial agonist): partial agonist <85% of the response to U69,593
T2 construct: host or cells: CHO (CHO-hKOR)
Procedure: as §1, §2, §3, §4

male CD1 mice = assay: acetic acid-induced writhing assay after sc administration; format: in vivo, mouse; conditions: for ED50: Mus musculus, 0.5 h, read-out: ED50 (95% CI), mice, sc, inhibition of writhing 30 min after drug administration; for ED50 (95% CI): mice, inhibition of writhing 30 min after drug administration
Procedure: Solutions of test compounds were prepared in sterile physiological 0.9% saline and further diluted to working doses in saline solution. Test compounds or saline (control) were administered by sc route in a volume of 10 μL/1 g of body weight. All doses are expressed in terms of salts. Separate groups of mice received the respective dose of compound, and individual mice were only used once for behavioral testing.
Writhing was induced in male CD1 mice by ip injection of a 0.6% acetic acid aqueous solution as described previously.[48],[62] Groups of mice were administered sc different doses of test compound or saline (control), and 5 min prior to testing (25 min after drug or saline), each animal received an ip injection of acetic acid solution. Each mouse was placed in individual transparent Plexiglas chambers, and the number of writhes was counted during a 10 min observation period. […] For the antagonism study, naloxone methiodide was sc co-administered with the respective opioid agonist, and writhing was assessed as described above.
as §4

MOR [3] = molecular target: T3, MOR (Homo sapiens, UniProt P35372); assay: [35S]GTPγS binding assay, CHO-hMOR membranes; format: biochemical; conditions: for Emax: relative to reference full agonist DAMGO, read-out: MOR % stim.
T3 construct: host or cells: CHO (CHO-hMOR)
Procedure: as §1, §2, §3, §4

MOR [4] = molecular target: T4, MOR (Rattus norvegicus, UniProt P33535); assay: competition radioligand binding, rat brain membranes, [3H]DAMGO; conditions: rat brain membranes; read-out: opioid receptor binding Ki MOR
T4 construct: Membranes were prepared from Sprague-Dawley rat brains or guinea-pig brains according to the described procedures; tissue Labortierkunde und Laborgenetik, Medizinische Universität Wien; host or cells: Sprague-Dawley rat brain without cerebella
Procedure: (§5) Competition binding assays using rat brain (MOR and DOR) and guinea-pig brain (KOR) membranes (Table 1) were performed according to published procedures.[44],[49] […] In addition, we have assessed binding at the human opioid receptors stably transfected in Chinese hamster ovary (CHO) cells (Table S1).
(§6) Membranes were prepared from Sprague-Dawley rat brains or guinea-pig brains according to the described procedures.[44],[45] Brains without cerebella were homogenized on ice in 5 vol/wt of ice-cold 50 mM Tris-HCl buffer (pH 7.4) and diluted in 30 vol/wt of the same buffer. After centrifugation at 40 000g for 20 min at 4 °C, the pellets were resuspended in 30 vol/wt of 50 mM Tris-HCl buffer (pH 7.4) and incubated at 37 °C for 30 min. The centrifugation step described above was repeated, and the final pellets were resuspended in 5 vol/wt of 50 mM Tris-HCl buffer (pH 7.4) containing 0.32 M sucrose and stored at −80 °C until use.
(§7) Rat brain membranes were incubated with either [^3H]DAMGO (1 nM, 45 min, 35 °C) or [^3H][Ile^5,6]deltorphin II (0.5 nM, 45 min, 35 °C) for labeling MOR or DOR receptors, respectively. Guinea-pig brain membranes were incubated with [^3H]U69,593 (1 nM, 30 min, 30 °C) for labeling KOR. Binding assays with CHO cell membranes were conducted at 25 °C for 60 min using [^3H]DAMGO (1 nM) or [^3H]diprenorphine (0.2 nM) for labeling MOR or DOR, respectively. Nonspecific binding was determined using 10 μM naloxone (rodent brain) or 1–10 μM of the unlabeled counterpart of each radioligand (CHO cells). Reactions were terminated by rapid filtration through Whatman glass fiber GF/C filters. Filters were washed three times with 5 mL of ice-cold 50 mM Tris-HCl buffer (pH 7.4) using a Brandel M24R cell harvester (Gaithersburg, MD). Radioactivity retained on the filters was counted by liquid scintillation counting using a Beckman Coulter LS6500 (Beckman Coulter Inc., Fullerton, CA). All binding experiments were performed in duplicate and repeated at least three times.
as §4

DOR [5] = molecular target: T5, DOR (Rattus norvegicus, UniProt P33533); assay: competition radioligand binding, rat brain membranes, [3H][Ile5,6]deltorphin II; conditions: rat brain membranes; read-out: opioid receptor binding Ki DOR
T5 construct: Membranes were prepared from Sprague-Dawley rat brains or guinea-pig brains according to the described procedures; tissue Labortierkunde und Laborgenetik, Medizinische Universität Wien; host or cells: Sprague-Dawley rat brain without cerebella
Procedure: as §5, §6, §7, §4

KOR [6] = molecular target: T6, KOR (Cavia porcellus, UniProt P41144); assay: competition radioligand binding, guinea-pig brain membranes, [3H]U69,593; conditions: guinea-pig brain membranes; read-out: opioid receptor binding Ki KOR
T6 construct: Membranes were prepared from Sprague-Dawley rat brains or guinea-pig brains according to the described procedures; tissue Labortierkunde und Laborgenetik, Medizinische Universität Wien; host or cells: guinea-pig brain without cerebella
Procedure: as §5, §6, §7, §4

[7] = [35S]GTPγS, CHO human MOR membranes, read-out: MOR EC50

Compound | EC50 (DOR [1]) | Emax (DOR [1]) | EC50 (KOR [2]) | Emax (KOR [2]) | ED50 (male CD1 mice) | EC50 (MOR [3]; [7]) | Emax (MOR [3]) | functional profile at KOR (full/partial agonist) (KOR [2]) | Ki (MOR [4]) | Ki (DOR [5]) | Ki (KOR [6]) | EC50 (MOR [3]) | ED50 (95% CI) (male CD1 mice) | increased agonist potency at DOR vs MOR (DOR [1]; [35S]GTPγS EC50)
CO[C@@]12CCC(=O)[C@@H]3Oc4c(O)ccc5c4[C@@]31CCN(C)[C@@H]2C5 [Compound 1, 14-O-methyloxymorphone, reference compound] | 37.3 ± 8.5 nM | 106 ± 1% | 116 ± 31 nM | 77 ± 5% | 0.00326 mg/kg | – | – | – | – | – | – | – | – | –
CN1CC[C@]23c4c5ccc(O)c4O[C@H]2[C@@H](NCC(=O)O)CC[C@@]3(OCCCc2ccccc2)[C@H]1C5 [Compound 5a] | – | – | – | – | 0.0361 mg/kg | – | – | – | – | – | – | – | – | –
CN1CC[C@]23c4c5ccc(O)c4O[C@H]2[C@H](NCC(=O)O)CC[C@@]3(OCCCc2ccccc2)[C@H]1C5 [Compound 5b] | – | – | – | – | 0.0416 mg/kg | – | – | – | – | – | – | – | – | –
CO[C@@]12CC[C@H](N[C@@H](CO)C(=O)O)[C@@H]3Oc4c(O)ccc5c4[C@@]31CCN(C)[C@@H]2C5 [Compound 6a, (2S)-2-[(4,5α-Epoxy-3-hydroxy-14β-methoxy-17-methylmorphinan-6α-yl)amino]-3-hydroxypropionic Acid Dihydrochloride] | 13.9 ± 1.5 nM | 101 ± 2% | 1210 ± 200 nM | 44 ± 5.2% | 0.0321 mg/kg | 1.6 ± 0.59 nM | 87 ± 5% | – | – | – | – | – | – | –
CO[C@@]12CC[C@@H](N[C@@H](CO)C(=O)O)[C@@H]3Oc4c(O)ccc5c4[C@@]31CCN(C)[C@@H]2C5 [Compound 6b, (2S)-2-[(4,5α-Epoxy-3-hydroxy-14β-methoxy-17-methylmorphinan-6β-yl)amino]-3-hydroxypropionic Acid Dihydrochloride] | 6.98 ± 4.24 nM | 98 ± 1% | 201 ± 116 nM | 88 ± 2% | – | 3.56 ± 0.76 nM | 101 ± 9% | full agonists | – | – | – | – | – | –
CO[C@@]12CC[C@H](N[C@H](C(=O)O)C(C)C)[C@@H]3Oc4c(O)ccc5c4[C@@]31CCN(C)[C@@H]2C5 [Compound 7a, (2S)-2-[(4,5α-Epoxy-3-hydroxy-14β-methoxy-17-methylmorphinan-6α-yl)amino]-3-methylbutyric Acid Dihydrochloride] | 33.8 ± 8.9 nM | 91 ± 2% | 462 ± 126 nM | 51 ± 0.5% | – | 10.5 ± 4 nM | 95 ± 8% | partial agonist | 3.16 ± 0.25 nM | 3.91 ± 0.3 nM | 325 ± 19 nM | – | – | –
CO[C@@]12CC[C@H](N[C@@H](CC(N)=O)C(=O)O)[C@@H]3Oc4c(O)ccc5c4[C@@]31CCN(C)[C@@H]2C5 [Compound 11a, (2S)-3-Carbamoyl-2-[(4,5α-epoxy-3-hydroxy-14β-methoxy-17-methylmorphinan-6α-yl)amino]propionic Acid Dihydrochloride] | 9.78 ± 3.32 nM | 106 ± 6% | 81.7 ± 12.3 nM | 67 ± 12% | < 0.02 mg/kg | 0.83 ± 0.17 nM | 99 ± 0.2% | – | – | – | – | < 1 nM | 15.2 (6.89–33.3) μg/kg | –
CO[C@@]12CC[C@@H](N[C@@H](CC(N)=O)C(=O)O)[C@@H]3Oc4c(O)ccc5c4[C@@]31CCN(C)[C@@H]2C5 [Compound 11b, (2S)-3-Carbamoyl-2-[(4,5α-epoxy-3-hydroxy-14β-methoxy-17-methylmorphinan-6β-yl)amino]propionic Acid Dihydrochloride] | 3.18 ± 0.93 nM | 88 ± 5% | 923 ± 11 nM | 71 ± 9% | – | 2.04 ± 0.44 nM | 96 ± 14% | – | – | – | – | – | – | –
CO[C@@]12CC[C@H](N[C@@H](CCC(N)=O)C(=O)O)[C@@H]3Oc4c(O)ccc5c4[C@@]31CCN(C)[C@@H]2C5 [Compound 12a, (2S)-4-Carbamoyl-2-[(4,5α-epoxy-3-hydroxy-14β-methoxy-17-methylmorphinan-6α-yl)amino]butanoic Acid Dihydrochloride] | 7.8 ± 3.61 nM | 104 ± 10% | 185 ± 30 nM | 70 ± 3% | – | 2.27 ± 0.11 nM | 90 ± 8% | – | – | – | – | – | – | –
CO[C@@]12CC[C@@H](N[C@@H](CCC(N)=O)C(=O)O)[C@@H]3Oc4c(O)ccc5c4[C@@]31CCN(C)[C@@H]2C5.Cl.Cl [Compound 12b, (2S)-4-Carbamoyl-2-[(4,5α-epoxy-3-hydroxy-14β-methoxy-17-methylmorphinan-6β-yl)amino]butanoic Acid Dihydrochloride] | 3.96 ± 0.07 nM | 103 ± 9% | 1410 ± 418 nM | 63 ± 17% | – | 9.54 ± 1.15 nM | 98 ± 4% | – | – | – | – | – | – | 2–4 times
CN1CC[C@]23c4c5ccc(O)c4O[C@H]2[C@@H](O)C=C[C@H]3[C@H]1C5 [morphine, reference compound] | – | – | – | – | – | – | – | – | – | – | – | – | 437 (249–768) μg/kg | –
